We go through 1 compound from PMC9946934, “Reconstitution of human pyroptotic cell death in Saccharomyces cerevisiae” (Scientific Reports, 2023).

What all share (format): cell-based, Saccharomyces cerevisiae
One experiment addresses T1, caspase-8 (Homo sapiens, UniProt Q14790).
T1 construct: gene CASP8
Put plainly: growth rescue of S. cerevisiae expressing human caspase-8. From the text: growth rescue of S. cerevisiae expressing human caspase-8 on caspase-8 | higher concentrations of QVD were needed to restore the growth rate of yeast expressing caspase-8

The target of the next experiment is T2, caspase-1 (Homo sapiens, UniProt P29466).
T2 construct: gene CASP1
T2 sequence (P29466 1-404): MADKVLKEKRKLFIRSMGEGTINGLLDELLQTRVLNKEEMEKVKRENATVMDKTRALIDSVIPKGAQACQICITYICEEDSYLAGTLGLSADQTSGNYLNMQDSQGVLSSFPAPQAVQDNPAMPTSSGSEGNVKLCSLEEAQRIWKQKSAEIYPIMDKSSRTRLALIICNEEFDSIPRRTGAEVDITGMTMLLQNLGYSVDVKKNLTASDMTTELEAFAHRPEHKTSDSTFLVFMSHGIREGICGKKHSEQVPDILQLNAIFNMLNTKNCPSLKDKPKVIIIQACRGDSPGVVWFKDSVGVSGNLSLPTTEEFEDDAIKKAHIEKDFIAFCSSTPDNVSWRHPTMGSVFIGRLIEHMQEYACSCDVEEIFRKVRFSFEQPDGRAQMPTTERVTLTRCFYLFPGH
Briefly: growth rescue of S. cerevisiae expressing human caspase-1.

The target of a further experiment is T3, caspase-3 (Homo sapiens, UniProt P42574).
T3 construct: gene CASP3; active caspase-3 fused to β-galactosidase (caspase-3–LacZ)
T3 sequence (P42574 29-175): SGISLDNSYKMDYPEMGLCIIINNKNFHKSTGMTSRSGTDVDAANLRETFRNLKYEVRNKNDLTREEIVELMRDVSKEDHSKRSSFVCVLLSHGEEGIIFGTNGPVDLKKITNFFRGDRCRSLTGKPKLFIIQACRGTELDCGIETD
T3 sequence (P42574 176-277): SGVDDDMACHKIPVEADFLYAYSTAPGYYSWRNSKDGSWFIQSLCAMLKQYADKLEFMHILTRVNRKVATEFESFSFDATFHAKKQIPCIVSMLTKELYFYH
Briefly: growth rescue of S. cerevisiae expressing active human caspase-3.

T1 sequence (Q14790 whole entry): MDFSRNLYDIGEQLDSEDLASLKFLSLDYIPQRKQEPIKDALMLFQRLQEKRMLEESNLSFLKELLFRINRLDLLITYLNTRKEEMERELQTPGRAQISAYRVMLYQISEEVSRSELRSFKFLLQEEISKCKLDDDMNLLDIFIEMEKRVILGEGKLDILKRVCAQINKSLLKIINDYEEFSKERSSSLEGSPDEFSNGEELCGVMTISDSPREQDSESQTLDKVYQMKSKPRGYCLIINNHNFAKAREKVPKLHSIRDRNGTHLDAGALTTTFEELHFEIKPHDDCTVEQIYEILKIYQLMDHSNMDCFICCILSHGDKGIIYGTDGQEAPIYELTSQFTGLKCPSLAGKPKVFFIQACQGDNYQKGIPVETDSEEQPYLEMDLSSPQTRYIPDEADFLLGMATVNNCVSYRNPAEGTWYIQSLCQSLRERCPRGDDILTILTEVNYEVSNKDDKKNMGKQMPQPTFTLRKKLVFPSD

Consider `CC(C)[C@H](NC(=O)c1ccc2ccccc2n1)C(=O)N[C@@H](CC(=O)O)C(=O)COc1c(F)cccc1F` [QVD, Q-VD-OPh], for which the IC50 – broadly, the midpoint of a concentration-inhibition curve – at caspase-8 turned out to be 30 µM; on caspase-1, 21.4 µM; against caspase-3 it was 1.7 µM.
